Data as given in patent US5055479A, “Method of treating cachexia” (Sankyo Company, Limited, priority 1988, dated 1991).

What was measured:
[1] = Acute toxicity in mice, intraperitoneal injection; conditions: mouse, in vivo, ip
From the text: (§1) All of the compounds of formula (I) employed in the present invention have shown low toxicity and high safety, with limited side effects.

[2] = tested on: plasma lipoprotein lipase; test: Enhancement of plasma lipoprotein lipase activity in mice; assay type: in vivo, mice (Balb/c); conditions: 9 mg/kg via tail vein, 21 hours later
Description: Female mice (Balb/c, 10 weeks old, n=6, i.e. the number in each test group was 6) were injected with 9 mg/kg of the test compound (Compound No. 1-19) via the tail vein. Twenty one hours later, the activities of the plasma lipoprotein lipase were determined according to Vlassara's method. [Horm. Metabol. Res., 18, 698-703(1986)].
Activities of the plasma lipoprotein lipase in control mice receiving physiological saline were expressed as 100 and the relative value is shown in the following Table 5.

[3] = tested on: tumor cells, adenocarcinoma C-12G; test: Improving cachexia and increasing life-span of tumor bearing mice; assay type: in vivo, mouse (CSF1)
From the text: A mouse cachexia model was made by inoculating 6×10^5 viable tumor cells, adenocarcinoma C-12G, subcutaneously into the right axillary region of a CSF1 mouse (8-9 weeks old, female weighing 21-24 g, n=10). The viable tumor cells were counted under a microscope after staining them with 0.4% of trypan blue (Sigma Co.).
The growth of this kind of tumor, inoculated subcutaneously, causes a marked Weight loss (the weight losses of mice 16-17 days after tumor inoculation were (4.0-4.5 g), piloerection and depression of emotion and finally death.
Compound No. 1-19 (hereafter called the test compound) was suspended in saline containing 0.5% CMC (carboxymethyl cellulose) at a concentration of 4 mg/ml. The suspension was administrated orally to mice on days 1-4, 7-11, 14-24 (20 times in total) after the tumor inoculation. The status of the mice, such as weight loss. Piloerection, depression of emotion and increase in life-span, was observed.
On the other hand, for a control group of mice, saline solution containing 0.5% of CMC was given orally.
In the above, the median survival times were measured in days.

[4] = Acute toxicity in rats, subcutaneous injection; conditions: rat, in vivo, sc
From the text: as §1

SMILES: COc1ccc(CN2CCc3c(C)nc4ncnn4c32)cc1 [Compound 1-49, 7,8-dihydro-8-(4-methoxybenzyl)-5-methyl-6H-pyrrolo[3,2-e][1,2,4]triazolo[1,5-a]pyrimidine]
- LD50 [1]: ≥ 300 mg/kg

SMILES: Cc1ccc(CN2CCc3c(C)nc4ncnn4c32)cc1 [Compound 1-48, 7,8-dihydro-5-methyl-8-(4-methylbenzyl)-6H-pyrrolo[3,2-e][1,2,4]triazolo[1,5-a]pyrimidine]
- LD50 [1]: ≥ 300 mg/kg

SMILES: Cc1nc2ncnn2c2c1CCN2Cc1ccc(Cl)cc1 [Compound 1-54, 8-(4-chlorobenzyl)-7,8-dihydro-5-methyl-6H-pyrrolo[3,2-e][1,2,4]triazolo[1,5-a]pyrimidine]
- LD50 [1]: ≥ 300 mg/kg

SMILES: Cc1nc2ccnn2c2c1CCN2Cc1ccccc1 [Compound 2-2, 8-benzyl-7,8-dihydro-5-methyl-6H-pyrazolo[1,5-a]pyrrolo[3,2-e]pyrimidine]
- LD50 [1]: ≥ 300 mg/kg

SMILES: Cc1nc2ncnn2c2c1CCN2C(C)(C)C [Compound 1-19, 8-t-butyl-7,8-dihydro-5-methyl-6H-pyrrolo[3,2-e][1,2,4]triazolo[1,5-a]pyrimidine]
- lipoprotein lipase activity relative to control ([2]; of that of the control): 120%
- Relative activity of the lipoprotein lipase ([2]; saline control = 100, n = 6, mean ± standard deviation, p<0.05 vs saline): 120 ± 10.6
- Median Survival time ([3]; 40 mg/kg/day orally, days 1-4, 7-11, 14-24, control 28.0): 40.5 days
- Increase in life-span (ILS) ([3]; 40 mg/kg/day orally, days 1-4, 7-11, 14-24, vs control): 45%
- status of the mice (weight, hair retention and emotion) ([3]; oral administration, 20 times in total): extensive improvements in weight, hair retention and emotion
- LD50 [4]: ≥ 100 mg/kg
